Experimental data from patent US10231980B2, “Cortexolone 17alpha-benzoate for use in the treatment of tumours” (COSMO TECHNOLOGIES LTD., priority 2014, dated 2019).

Columns and labels:
MiaPaca2 = assay: Annexin V / propidium iodide apoptosis flow cytometry; type: cell-based; settings: 24 hours, control 12%
Procedure: CB-03-06 was evaluated to determine if the mechanism of cytotoxicity on cancer cell lines was mediated by apoptosis and cell cycle arrest. Cancer cell lines were seeded in 6-well flat bottom plates. After 24 hours, test compounds or DMSO vehicle (negative control) were added. After an additional 24 hours, cells were scraped and stained with fluorescein conjugated Annexin V and propidium iodide, and analyzed by flow cytometry.

[1] = test system: LNCaP prostate cancer xenograft; assay: Human prostate cancer xenograft in nude mice, oral dosing; type: in vivo; settings: oral 100 mg/Kg daily 28 days
Procedure: 3×10^6 LNCaP cells suspended in matrigel were subcutaneously injected (on the right flank) into 6 week old male athymic nude mice. Tumors were measured as described above. Treatment with CB-03-06 and controls compounds was initiated after the tumor had reached 50 mm^3. […] Oral dosing was daily (100 mg/Kg in 200 microL/mouse) for 28 consecutive days. Results were plotted as average change in tumor volume relative to the start of treatment.

C[C@]12CCC(=O)C=C1CC[C@@H]1[C@@H]2CC[C@@]2(C)[C@H]1CC[C@]2(OC(=O)c1ccccc1)C(=O)CO [CB-03-06, cortexolone 17α-benzoate]
cells in apoptosis (early and late) (MiaPaca2): 56 % cells | anti-tumor activity, change in tumor volume [1]: strong anti-tumor activity against prostate cancer
